Data as given in patent publication US6930088B2, “Conformationally constrained backbone cyclized somatostatin analogs” (Peptor Ltd., priority 1998, dated 2005).
Entries after “also recorded” stand apart in the source; their conditions may differ.

What was measured:
SSTR-2 = target: T1, SSTR-2 (Homo sapiens, UniProt P30874); experiment: Inhibition of 125I-Tyr11-SRIF binding to membrane preparations expressing SSTR-2; settings: read-out: Percent inhibition of SRIF-14 binding
T1 construct: expressed in transfected cells
T1 sequence (P30874 whole entry): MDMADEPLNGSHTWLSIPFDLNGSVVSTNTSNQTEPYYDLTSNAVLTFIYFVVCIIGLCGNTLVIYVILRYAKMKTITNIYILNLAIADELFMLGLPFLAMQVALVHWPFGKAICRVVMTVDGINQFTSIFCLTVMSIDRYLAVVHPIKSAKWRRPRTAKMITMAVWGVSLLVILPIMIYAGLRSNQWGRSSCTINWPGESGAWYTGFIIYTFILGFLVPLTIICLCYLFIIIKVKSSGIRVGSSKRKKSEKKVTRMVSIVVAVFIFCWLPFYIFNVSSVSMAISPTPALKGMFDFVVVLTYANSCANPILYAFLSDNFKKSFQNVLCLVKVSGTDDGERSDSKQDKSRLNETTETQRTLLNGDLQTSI
Procedure: The receptor preparations used for these tests were either from the cloned human receptors selectively and stably expressed in Chinese Hamster Ovary (CHO) cells or from cell lines naturally expressing the SSTRs. […] The binding reactions were filtered, the filters were washed and the bound radioactivity was counted in gamma counter. Non specific binding was defined as the radioactivity remaining bound in the presence of 1 μM unlabeled SRIF-14.
(§1) In order to validate positive signals of the binding tests, and to eliminate non-specific signals, samples of irrelevant peptides, such as GnRH, that were synthesized and handled using the same procedures, were tested in the same assays as negative control samples. These samples had no binding activity in any of the assays. Results are shown below in Tables 5 and 6 and FIG. 1.

SSTR-4 = target: T2, SSTR-4 (Homo sapiens, UniProt P31391); experiment: Inhibition of 125I-Tyr11-SRIF binding to membrane preparations expressing SSTR-4; settings: SSTR-R4, read-out: Percent inhibition of SRIF-14 binding
T2 construct: expressed in transfected cells
T2 sequence (P31391 whole entry): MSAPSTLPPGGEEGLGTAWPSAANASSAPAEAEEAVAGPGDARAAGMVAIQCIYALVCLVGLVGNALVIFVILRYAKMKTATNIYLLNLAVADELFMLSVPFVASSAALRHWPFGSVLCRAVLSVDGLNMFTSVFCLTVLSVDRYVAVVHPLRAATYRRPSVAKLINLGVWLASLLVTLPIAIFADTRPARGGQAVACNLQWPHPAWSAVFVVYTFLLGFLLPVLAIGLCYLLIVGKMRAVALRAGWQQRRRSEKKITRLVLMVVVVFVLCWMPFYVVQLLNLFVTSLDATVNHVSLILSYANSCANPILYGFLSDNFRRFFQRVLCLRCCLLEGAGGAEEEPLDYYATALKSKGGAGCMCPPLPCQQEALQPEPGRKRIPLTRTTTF
Procedure: (§2) The somatostatin analogs were tested for their potency in inhibition of the binding of ^125I-Tyr^11-SRIF (based on the method described by Raynor et. al., Molecular Pharmacology, 1993, 43, 838-844) to membrane preparations expressing the transmembranal somatostatin receptors (SSTR-1, 2, 3, 4 or 5). The receptor preparations used for these tests were either from the cloned human receptors selectively and stably expressed in Chinese Hamster Ovary (CHO) cells or from cell lines naturally expressing the SSTRs. Typically, cell membranes were homogenated in Tris buffer in the presence of protease inhibitors and incubated for 30-40 minutes with ^125I-Tyr^11-SRIF with different concentrations of the tested sample. The binding reactions were filtered, the filters were washed and the bound radioactivity was counted in gamma counter. Non specific binding was defined as the radioactivity remaining bound in the presence of 1 μM unlabeled SRIF-14.
as §1

[1] = tested on: somatostatin receptors (SSTR-1, 2, 3, 4 or 5); experiment: Somatostatin receptor subtype selectivity of binding; parameters: species or system human; settings: in words
Procedure: as §2, §1

[2] = In vitro biostability in renal homogenate (HPLC)
Procedure: The assay was based on HPLC determination of peptide degradation as a function of time in renal homogenate at 37° C.

[3] = tested on: human Carcinoid BON-1 cells; experiment: Inhibition of cAMP in human Carcinoid BON-1 cells; format: cell-based; settings: following Forskolin stimulation
From the text: The activation of SST-R5 leads to the reduction of Adenylate Cyclase activity. Somatostatin receptors including type-5 receptors are expressed in the human Carcinoid derived cell line BON-1. This human cell culture served as an in-vitro discovery assay for novel Carcinoid therapeutics. Interaction of somatostatin analogs with Somatostatin receptors expressed in this system subsequently affects cellular functionality of BON-1.

[4] = tested on: CHO cells expressing human cloned SST-R5; experiment: In-vitro cell-growth inhibition; format: cell-based
Procedure: Pharmacological evaluation of growth inhibition was performed utilizing CHO cells expressing human cloned SST-R5.

[5] = tested on: Chromogranin A release from BON-1; experiment: Inhibition of Chromogranin A release from BON-1; format: cell-based; settings: human Carcinoid cell line BON-1
From the text: Assessment of Chromogranin A release from BON-1 is an important assay aimed at identifying potential anti Carcinoid drugs. Chromagranin A is one of the principal mediators in degranulation of tumor granules, which secrete excessive amounts of vasoactive substances from Carcinoid tumors.

Opiate receptors [6] = experiment: NovaScreen nonspecific binding, Opiate receptors; settings: tested at 100 nM; FIG. 2
From the text: (§3) NovaScreen (Hanover, Md.) performed an assessment for nonspecific binding to various G-protein coupled receptor families. Binding studies to Neurokinin, Opiate and Muscarinic receptors were based on a comparison between the native hormone Somatostatin, Ocreotide and PTR 3173.

[7] = tested on: other G-protein coupled receptors; experiment: Binding to non-somatostatin G-protein coupled receptors; settings: screening vs. Octreotide and SRIF
From the text: This characteristic is of great advantageous because binding to non-somatostatin receptors could cause potential adverse effects in the body.
as §3

Opiate receptors [8] = experiment: Guinea-Pig Ileum met-Enkephalin-evoked twitch contraction; settings: preliminary results
[9] = Initial safety testing in rodents; format: in vivo; settings: dose 10,000-fold higher then the efficacious dose for inhibiting Growth hormone release
Procedure: PTR 3173 was tested in various species for its initial safety properties. Under the European Pharmacopoeia requirements for safety testing, it was declared a safe drug candidate at this stage of development.

[10] = kidney or brush border membranes

Q: For `C[C@@H](O)[C@@H]1NC(=O)[C@H](CCCCN)NC(=O)[C@@H](Cc2c[nH]c3ccccc23)NC(=O)[C@H](Cc2c[nH]c3ccccc23)NC(=O)[C@H](Cc2ccccc2)NC(=O)CCCNC(=O)CCCN(CC(N)=O)C(=O)[C@H](Cc2ccccc2)NC1=O` [PTR 3173, GABA*-Phe-Trp-(D)Trp-Lys-Thr-Phe-Gly(C3)-X], which inhibition at 10 pM (SSTR-2) is on record?
A: 15%

Q: And the inhibition at 0.0001 µM (SSTR-2)?
A: 30%

Q: And the inhibition at 0.001 µM (SSTR-2)?
A: 42%

Q: And the inhibition at 0.01 µM (SSTR-2)?
A: 80%

Q: What about the inhibition at 0.1 µM (SSTR-2) of the same molecule?
A: 95%

Q: And the inhibition at 1 µM (SSTR-2)?
A: 96%

Q: And the inhibition at 1 µM (SSTR-4; 10^−6 M)?
A: 5%

Q: And the inhibition at 0.1 µM (SSTR-4; 10^−7 M)?
A: 5%

Q: What about the inhibition at 0.01 µM (SSTR-4; 10^−8 M) of the same molecule?
A: 0%

Q: What about the inhibition at 0.001 µM (SSTR-4; 10^−9 M) of the same molecule?
A: 0%

Q: And the inhibition at 0.0001 µM (SSTR-4; 10^−10 M)?
A: 0%

Q: And the inhibition at 10 pM (SSTR-4; 10^−11 M)?
A: 0%

Q: What about the “somatostatin receptor subtype selectivity” value [1] of the same molecule?
A: selective for receptors 2 and 5; also recorded: improved selectivity of binding to the SST receptor subtype SST-R2 and SST-R5

Q: And the “somatostatin receptor subtype selectivity” value ([1]; listed as PTR-3173)?
A: SST-R2+SST-R5

Q: What about the “Percent of intact molecule after incubation in renal homogenate” value ([2]; Time 0 hrs, 37° C.) of the same molecule?
A: 100%

Q: And the remaining at 1 h [2, 10]?
A: 100%

Q: And the remaining at 3 h [2, 10]?
A: 100%

Q: What about the remaining at 24 h [2, 10] of the same molecule?
A: 100%

Q: And the “inhibition of cAMP production” value [3]?
A: equipotent to clinically used drug Octreotide

Q: And the growth inhibition [4]?
A: significant growth inhibition; also recorded: considerably higher potency of growth inhibition compared to the native hormone and the drug Octreotide

Q: What about the “inhibition of Chromogranin A release” value [5] of the same molecule?
A: inhibits Chromogranin A release; also recorded: significant anti-release effect; also recorded: equivalent potency with the native hormone Somatostatin

Q: What about the “binding to Opiate receptors” value (Opiate receptors [6]) of the same molecule?
A: did not bind

Q: What about the “binding to other G-protein coupled receptors” value [7] of the same molecule?
A: binds significantly less other G-protein coupled receptors than Octreotide

Q: What about the “effect on met-Enkephalin-evoked twitch contraction” value (Opiate receptors [8]) of the same molecule?
A: did not affect met-Enkephalin-evoked twitch contraction

Q: What about the toxicity signs [9] of the same molecule?
A: No toxicity signs
